# Data as given in US8722717B2, “3-triazolylphenyl-substituted sulphide derivatives as acaricides and insecticides” (Bayer CropScience AG, priority 2009, dated 2014).
# Legend:
# [1] = test system: greenhouse red spidermite (Tetranychus urticae); experiment: Tetranychus test; OP resistant (TETRUR spray treatment), Example 5; type: in vivo; conditions: foliar, 144 h, spray on bean leaf discs, application rate 500 g/ha, after 6 days, read-out: effect (100% means that all of the mites have been killed)
# Method: (§1) Solvents: 78.0 parts by weight of acetone • • 1.5 parts by weight of dimethylformamide Emulsifier: 0.5 part by weight of alkylaryl polyglycol ether An appropriate preparation of active compound is prepared by mixing 1 part by weight of active compound with the stated amounts of solvent and emulsifier and diluting the concentrate with emulsifier-containing water to the desired concentration. Leaf discs of bean (Phaseolus vulgaris) infested by all stages of the greenhouse red spidermite (Tetranychus urticae) are sprayed with a preparation of active compound at the desired concentration. After 6 days, the effect in % is determined. Here, 100% means that all of the mites have been killed; 0% means that no mites have been killed.
# Meloidogyne incognita = Meloidogyne incognita test (MELGIN); type: in vivo; conditions: application rate 20 ppm, lettuce in sand, after 14 days
# Method: Solvents: 80.0 parts by weight of acetone An appropriate preparation of active compound is prepared by mixing 1 part by weight of active compound with the stated amounts of solvent and emulsifier and diluting the concentrate with water to the desired concentration. Pots are filled with sand, solution of active compound, meloidogyne incognita egg/larvae suspension, and lettuce seeds. The lettuce seeds germinate and the plants develop. On the roots, the galls develop. After 14 days, the nematicidal effect is determined from the gall formation, in %. Here, 100% means that no galls were found; 0% means that the number of galls on the treated plants corresponds to that for the untreated control.
# [2] = log P by HPLC/LC-MS on reversed-phase C18, formic acid method [b]; type: physicochemical; conditions: reversed-phase C18 HPLC column; pH 2.7, 0.1% aqueous formic acid and acetonitrile; read-out: logP (HCOOH)
# Method: The log P values reported in the table above and in the preparation examples were determined in accordance with EEC Directive 79/831 Annex V.A8 by HPLC (High Performance Liquid Chromatography) on reversed-phase columns (C 18), with the following methods: ^[b] The determination is made by LC-MS in the acid range at pH 2.7 with 0.1% aqueous formic acid and acetonitrile (containing 0.1% formic acid) as eluents; linear gradient from 10% acetonitrile to 95% acetonitrile. Calibration took place with unbranched alkan-2-ones (having 3 to 16 carbon atoms) of known log P values (log P values determined from the retention times by linear interpolation between two successive alkanones).
# [3] = test system: greenhouse red spidermite (Tetranychus urticae); experiment: Tetranychus test; OP resistant (TETRUR spray treatment), Example 7, comparison with prior art; type: in vivo; conditions: 6 d
# Method: as §1, with “the desired time,” for “6 days,”
compound,measurement,setting,value
Cc1cc(Cl)c(-n2cnc(C(F)(F)F)n2)cc1[S+]([O-])CC#N (centres unmarked) [I-A-11],pest or weed control at 500 g/ha,[1],100%
same,nematicidal effect from gall formation (100% means that no galls were found),Meloidogyne incognita,90%
same,chromatographic logP,[2],2.17
"Cc1cc(C)c(-n2cnc(C(F)(F)F)n2)cc1SCC(F)(F)F [VI -297, reference compound]",% effect after application,[3]; 4 g/ha,0%
same,% effect after application,[3]; 20 g/ha,70%
